# From patent publication US4778824A, “Method for suppressing a transplantation immunity and treating an allergic disease and an autoimmune disease” (Zaidan Hojin Biseibutsu Kagaku Kenkyu Kai, priority 1984, dated 1988)
# Where a name gives a salt, the structure may show the parent alone.
# Key:
# [1] = tested on: experimental aplastic anemia; experiment: Effect on experimental aplastic anemia in mice; type: in vivo, C3H/HeN mice; details: 10 days; for MST (mean survival time): ± S.D.
# Source text: Female C3H/HeN mice (Mls^c) of 10 week-old and female CBA mice (Mls^d) of 10 week-old were used. A group consisted of 10 mice. CBA lymph node cells (10^7) were i.v. into C3H/HeN mice after being subjected to 600 rads of whole-body X-irradiation, spergualin was given i.p. once a day for 10 days. The data is indicated as the mean survival time ±S.D.
# [2] = tested on: graft-versus-host disease; experiment: Delay of graft-versus-host disease in irradiated CBA mice transplanted with C57BL/6 bone marrow cells and spleen cells; type: in vivo; details: Donor C57BL/6, 10 days
# Experimental: Female CBA mice of 9 week-old and female C57BL/6 mice of 9 week-old were used. A group consisted of 10 mice. Bone marrow cells (10^7) and spleen cells (5×10^6) from CBA mice and C57BL/6 mice were injected i.v. into the whole body irradiation (850 rad) CBA mice. Spergualin was administered i.p. once a day for 10 days starting on one day after the injection of bone marrow cells and spleen cells. The data is indicated as the median survival time.
# IgG antibody production = experiment: Inhibition of IgG antibody production against sheep red blood cells (plaque-forming cells); type: in vivo, CDF 1 mice; details: 50 mg/kg/day i.p.; for IgG plaque forming cell count: ± S.D., significant (P < 0.0001); for inhibition at 50 mg/kg/day: Mus musculus, Erythrocyte, ip, IgG
# Experimental: CDF 1 mice (6-10 wk old, female) were immunized by intravenous injection of 1×10^8 sheep red blood cells. The mice were intraperitoneally administered 50 mg/kg/day of the test compound for a period of 4 days starting on the day following the immunization or 3 days after that day. Seven days after the sensitization, spleen cells were isolated and the number of IgG plaque forming cells was counted by a known method (Yata et al., supra). As in Experiment 3, the percentage inhibition of IgG antibody production was determined.
# [3] = tested on: acute experimental allergic encephalomyelitis; experiment: Effect on acute experimental allergic encephalomyelitis; type: in vivo, strain 13 guinea pigs; details: 2 weeks, with S.D.
# Experimental: Male strain 13 guinea pigs were used. A group consisted of 5 guinea pigs. An aqueous suspension of 50% syngeneic spinal cord homogenate was emulsified in an equal volume of complete Freund's adjuvant containing M. tuberculosis at 20 mg/ml. The antigen emulsion (0.1 ml) was injected both hindfootpads of a guinea pig. Spergualin was administered i.p. for 2 weeks at 0.78 and 1.56 mg/kg.
# T-lymphocyte = experiment: Inhibition of Con A-induced reaction of T-lymphocyte blastogenesis (3H-thymidine uptake, BALB/c spleen cells); type: cell-based, BALB/c mice; details: Con A 5 μg/ml, 72 h; for ^3 H--thymidine uptake: ± S.D.
# Experimental: The present inventors conducted tests to evaluate the actions of spergualin against the reaction of lymphocyte blastogenesis in accordance with the method of Waithe et al. (Waithe et al., Handbook of Experimental Immunology, page 26.1, 1978).
# Spleen cells from BALB/c mice were distritubed among wells in a microplate so that each well contained 2×10^5 cells/0.2 ml. The compound was added to all wells but one, the latter being used as a control. Con A (5 μg/ml) was added to all the wells and the so prepared cell suspensions were cultivated in a 5% CO2 incubator for 72 hours at 37° C. Eight hours before the completion of the incubation, 1 μCi of ^3 H-thymidine was added to each well and the uptake of the thymidine by the cultured cells was measured with a liquid scintillation counter to estimate the progress of the reaction of T-lymphocyte blastogenesis. The percentage inhibition of the blastogenesis by the test compound was calculated by: […] wherein Adpm indicates the uptake count for the addition of only Con A and Bdpm, the count for the addition of both Con A and the test compound.
# [4] = Exp. 1, 3.13 mg/kg i.p. once a day
# [5] = Exp. 2, 6.25 mg/kg i.p. once a day
# [6] = Exp. 2, 25.0 mg/kg i.p. once a day
# [7] = Exp. 2, 50.0 mg/kg i.p. once a day
smiles,measurement,setting,value
N=C(N)NCCCCC(O)CC(=O)NC(O)C(=O)NCCCCNCCCN (stereo not shown) [spergualin (trihydrochloride)],"30-day survivors, Survivors/Total",[1]; [4],2/10
same,MST (mean survival time),[1]; [4],16.3 ± 8.1 days
same,"30-day survivors, Survivors/Total","[1]; Exp. 1, 6.25 mg/kg i.p. once a day",6/10
same,MST (mean survival time),"[1]; Exp. 1, 6.25 mg/kg i.p. once a day, P < 0.05",22.6 ± 9.7 days
same,"30-day survivors, Survivors/Total","[1]; Exp. 1, 12.5 mg/kg i.p. once a day",10/10
same,MST (mean survival time),"[1]; Exp. 1, 12.5 mg/kg i.p. once a day, P < 0.01",30.0 ± 0.0 days
same,"30-day survivors, Survivors/Total","[1]; Exp. 1, 25.0 mg/kg i.p. once a day",6/10
same,MST (mean survival time),"[1]; Exp. 1, 25.0 mg/kg i.p. once a day, P < 0.05",23.6 ± 8.6 days
same,"30-day survivors, Survivors/Total",[1]; [5],3/10
same,MST (mean survival time),[1]; [5],20.2 ± 8.4 days
same,"30-day survivors, Survivors/Total","[1]; Exp. 2, 12.5 mg/kg i.p. once a day",6/10
same,MST (mean survival time),"[1]; Exp. 2, 12.5 mg/kg i.p. once a day, P < 0.05",23.0 ± 9.4 days
same,"30-day survivors, Survivors/Total",[1]; [6],4/10
same,MST (mean survival time),[1]; [6],20.7 ± 8.5 days
same,"30-day survivors, Survivors/Total",[1]; [7],0/10
same,MST (mean survival time),[1]; [7],12.6 ± 3.9 days
same,"80-day survivors, Survivors/Total",[2]; 3.13 mg/kg i.p. once a day,2/10
same,MST (median survival time),[2]; 3.13 mg/kg i.p. once a day,33.0 days
same,"80-day survivors, Survivors/Total",[2]; 6.25 mg/kg i.p. once a day,3/10
same,MST (median survival time),"[2]; 6.25 mg/kg i.p. once a day, P < 0.05",45.3 days
same,"80-day survivors, Survivors/Total",[2]; 12.5 mg/kg i.p. once a day,4/10
same,MST (median survival time),"[2]; 12.5 mg/kg i.p. once a day, P < 0.01",55.0 days
same,"80-day survivors, Survivors/Total",[2]; 25.0 mg/kg i.p. once a day,9/10
same,MST (median survival time),"[2]; 25.0 mg/kg i.p. once a day, P < 0.01",> 80.0 days
same,IgG plaque forming cell count,IgG antibody production; days 1-4 after sensitization,17 ± 16 cells/10^6 spleen cells
same,IgG plaque forming cell count,IgG antibody production; days 3-6 after sensitization,19 ± 15 cells/10^6 spleen cells
same,inhibition at 50 mg/kg/day,IgG antibody production; days 1-4 after sensitization,96.7%
same,inhibition at 50 mg/kg/day,IgG antibody production; days 3-6 after sensitization,96.3%
same,Mean survival time,[3]; 0.78 mg/kg i.p.,15.2 ± 1.8 days
same,Mean survival time,"[3]; 1.56 mg/kg i.p., P < 0.01",23.6 ± 9.2 days
same,^3 H--thymidine uptake,T-lymphocyte; 10 μg/ml,"30,214 ± 25,033 dpm"
same,^3 H--thymidine uptake,T-lymphocyte; 100 μg/ml,788 ± 182 dpm
same,inhibition at 10 µg/mL,"T-lymphocyte; Mus musculus, T-lymphocyte, 10 μg/ml",76.7%
same,inhibition at 100 µg/mL,"T-lymphocyte; Mus musculus, T-lymphocyte, 100 μg/ml",99.4%
